This passage reports IC50 results from patent publication US20040186104A1, “Novel pyridinone and related heterocyclic derivatives” (priority 2001, published 2004).

The target in experiment [1] is T1, human kappa opioid receptor (Homo sapiens, UniProt P41145).
T1 construct: expressed in transfected cells; host or cells: HEK293S KOR cells (membrane preparations)
The experiment is described as follows: SPA binding assay for kappa-opioid receptor transfected cell membrane in 96-well format. The settings on record: HEK293S KOR cell membranes, radioligand 125I-(D-Pro10)-Dynorphin A (1-11), control inhibitor. From the text: (§1) Compounds of the invention, prepared using the general methods described above, may be tested for their ability to bind to the human kappa opioid receptor using standard procedures well known to those skilled in the art.
SPA Binding Assay for Kappa-Opioid Receptor Transfected Cell Membrane in 96-Well Format
Principle: Membranes containing the kappa opioid receptor are coupled to SPA beads, the ability of tested compounds to dislocate a radio ligand the protein agonist Dynorphin. (^125I-(D-Pro^10)-Dynorphin A (1-11)) are determined. Only radioaktivity in close proximity to the beads, that is bound to membranes attached to beads, will be measured.
Procedure: The total and non-specific binding are determined in absence and presence of 0.5 μM of Dynorphin, radioligand is added containing 15 000-20 000 CPM per well.
The membrane and SPA beads precouples over night (18-22 hours) in assay buffer at room temperature on a shaking platform, with rotary movement. The mixture of membrane and beads are pipetted together with the assay-buffer, agents and the radioligand into a 96-well microtiterplate.
The plate is incubated for 1 hours at room temperature, and counted in a WALLAC TRILUX MicroBeta.
Percentage inhibition is calculated for each well from the two standards, 0% and 100% inhibition.
The binding buffer, 50 mM Tris, 3 mM MgCl2, stored at +4° C. […]

Experiment [2] concerns the target T1, human kappa opioid receptor. The experiment is described as follows: Binding assay for opioid receptor transfected cell membrane in 96-well format (filtration), kappa opioid receptor. The settings on record: HEK293S KOR cell membranes, radioligand 125I-(D-Pro10)-Dynorphin A (1-11), control inhibitor.
Excerpt: as §1
Binding Assay for Opioid Receptor Transfected Cell Membrane in 96-Well Format
Principle: The procedures describe how to perform and interpret receptor binding experiments designed to determine the affinities of new compounds for μ, δ and κ receptors. The total and nonspecific binding are determined in the absence and presence of selective opioid receptor radiolabeled ligand.
Procedure for Kappa Opioid Receptor:
The total and non-specific binding are determined in absence and presence of 1 μM of Asimadoline and added with the multichannel pipett in respectively well of the 96 well plate (see table 1).
The radioligand 125I-(D-pro)-Dynorphin A (1-1 1) is added containing 30 000-50 000 CPM per well.
Membranes are thawed at room temperature and diluted in assay buffer to the appropriate amount of protein, homogenized 5-10 times in glas/glas, and added to the 96 well plate.
Vortex the plate 1 minute, incubate at room temperature for 60-75 minutes, vortex 1 minute and the reaction was terminated by rapid filtration (Micro96 Harvester, Skatron Instruments, Norway) to separate bound from free ligand. […]

T1 sequence (P41145 whole entry): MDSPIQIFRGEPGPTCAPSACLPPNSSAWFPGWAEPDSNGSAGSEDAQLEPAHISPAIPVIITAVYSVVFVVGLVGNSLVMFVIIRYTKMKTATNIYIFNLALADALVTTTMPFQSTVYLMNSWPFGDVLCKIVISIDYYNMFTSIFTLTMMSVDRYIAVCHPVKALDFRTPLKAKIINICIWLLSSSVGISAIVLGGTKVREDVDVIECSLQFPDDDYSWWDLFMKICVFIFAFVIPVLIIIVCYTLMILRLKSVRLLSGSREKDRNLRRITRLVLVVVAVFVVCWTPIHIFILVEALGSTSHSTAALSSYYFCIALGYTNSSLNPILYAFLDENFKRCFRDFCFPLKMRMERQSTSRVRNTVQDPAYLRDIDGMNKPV

`CN(C(=O)C(c1ccccc1)c1ccccc1)[C@H](CN1CC[C@H](O)C1)c1ccccc1` [Asimadoline]: the IC50 (as a rule, the concentration needed to halve the response being measured) in experiment [1] is around 4 nM; in experiment [2], 4 to 10 nM.
